Measurements from US9776979B2, “EBI2 modulators” (Sanford-Burnham Medical Research Institute, priority 2013, dated 2017).

molecular target: EBI2 (Homo sapiens, UniProt P32249); assay: Cell-based luminescent assay (EBI2 modulation); settings: not given
Procedure, shortened: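 Cells plated overnight at 37° C, then exposed to compound at 4-5 uM final with 80 nM 7a,25-OHC agonist for 60 min at 37° C. Luminescence read after 60 min detection at 25° C in the dark; values normalized to neutral and stimulator controls and plate-pattern corrected.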

Sequence of EBI2 (P32249 whole entry): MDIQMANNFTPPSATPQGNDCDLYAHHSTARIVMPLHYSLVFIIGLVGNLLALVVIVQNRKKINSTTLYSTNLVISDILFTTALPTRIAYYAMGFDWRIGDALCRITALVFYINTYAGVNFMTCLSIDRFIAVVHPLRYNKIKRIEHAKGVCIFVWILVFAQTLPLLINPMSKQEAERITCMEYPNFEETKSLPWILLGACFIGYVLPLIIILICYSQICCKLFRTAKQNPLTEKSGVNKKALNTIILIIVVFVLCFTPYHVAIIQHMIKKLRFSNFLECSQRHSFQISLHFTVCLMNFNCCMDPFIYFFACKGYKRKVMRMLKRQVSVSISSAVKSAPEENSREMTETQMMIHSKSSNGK

SMILES | IC50 [nM]
O=C(/C=C/c1ccccc1)N1CCN(Cc2cccc(F)c2)CC1 [Compound C240, (2E)-1-{4-[(3-fluorophenyl)methyl]piperazinyl}-3-phenylprop-2-en-1-one] | < 100
O=C(c1cc2cc(Cl)ccc2[nH]1)N1CCC(Nc2cccc(F)c2)CC1 [Compound C252, 5-chloroindol-2-yl 4-[(3-fluorophenyl)amino]piperidyl ketone] | < 100
O=C(c1cc2cc(Cl)ccc2[nH]1)N1CCC(Nc2ccc(F)cc2F)CC1 [Compound C258, 4-[(2,4-difluorophenyl)amino]piperidyl 5-chloroindol-2-yl ketone] | < 100
Cc1ccc(CN2CCN(C(=O)/C=C/c3ccccc3)CC2)cc1 [Compound C260] | < 100
O=C(c1cc2cc(Cl)ccc2[nH]1)N1CCC(Nc2cc(F)cc(F)c2)CC1 [Compound C273, 4-[(3,5-difluorophenyl)amino]piperidyl 5-chloroindol-2-yl ketone] | < 100

same assay, conditions: cell-based luminescence; 7a,25-OHC final assay concentration 80 nM; 60 minutes incubation; read-out: IC50

SMILES | IC50 [nM]
O=C(C#Cc1ccc(C(F)(F)F)cc1)N1CCN(Cc2ccc(F)cc2)CC1 [Compound C231, 1-{4-[(4-fluorophenyl)methyl]piperazinyl}-3-[4-(trifluoromethyl)phenyl]prop-2-yn-1-one] | < 100
CCN(CC)c1ccc(C(=O)N2CCN(C(=O)c3cc4cc(Cl)ccc4[nH]3)CC2)cc1 [Compound C232, 4-{[4-(diethylamino)phenyl]carbonyl}piperazinyl 5-chloroindol-2-yl ketone] | < 100
CN(C)c1ccc(/C=C/C(=O)N2CCN(C(c3ccccc3)c3ccccc3)CC2)cc1 [Compound C233, (2E)-3-[4-(dimethylamino)phenyl]-1-[4-(diphenylmethyl)piperazinyl]prop-2-en-1-one] | < 100
O=C(C=Cc1ccc2c(c1)OCO2)N1CCN(C(=O)c2ccc(Br)cc2)CC1 [Compound C234, 3-(2H-benzo[3,4-d]1,3-dioxolan-5-yl)-1-{4-[(4-bromophenyl)carbonyl]piperazinyl}prop-2-en-1-one] | < 100
O=C(/C=C/c1ccc(F)cc1)N1CCN(S(=O)(=O)c2ccc(F)cc2)CC1 [Compound C235, (2E)-3-(4-fluorophenyl)-1-{4-[(4-fluorophenyl)sulfonyl]piperazinyl}prop-2-en-1-one] | < 100
COc1ccc(CN2CCN(C(=O)C#Cc3ccc(C)cc3)CC2)cc1 [Compound C236, 1-{4-[(4-methoxyphenyl)methyl]piperazinyl}-3-(4-methylphenyl)prop-2-yn-1-one] | < 100
O=C(/C=C/c1ccc(F)cc1)N1CCN(S(=O)(=O)c2ccccc2F)CC1 [Compound C237, (2E)-3-(4-fluorophenyl)-1-{4-[(2-fluorophenyl)sulfonyl]piperazinyl}prop-2-en-1-one] | < 100
O=C(C=Cc1ccc2c(c1)OCO2)N1CCN(C(=O)c2ccc(Cl)cc2)CC1 [Compound C238, 3-(2H-benzo[3,4-d]1,3-dioxolen-5-yl)-1-{4-[(4-chlorophenyl)carbonyl]piperazinyl}prop-2-en-1-one] | < 100
Cc1ccccc1/C=C/C(=O)N1CCN(C(c2ccccc2)c2ccccc2)CC1 [Compound C241, (2E)-1-[4-(diphenylmethyl)piperazinyl]-3-(2-methylphenyl)prop-2-en-1-one] | < 100
Cn1c(C(=O)N2CCN(C(c3ccccc3)c3ccccc3)CC2)cc2ccccc21 [Compound C242, 4-(diphenylmethyl)piperazinyl 1-methylindol-2-yl ketone] | < 100
O=C(c1ccccc1)N1CCN(C(=O)c2cc3cc(Cl)ccc3[nH]2)CC1 [Compound C243, 5-chloroindol-2-yl 4-(phenylcarbonyl)piperazinyl ketone] | < 100
Cc1ccc2[nH]c(C(=O)N3CCN(Cc4ccc(C(C)(C)C)cc4)CC3)cc2c1 [Compound C244, 4-{[4-(tert-butyl)phenyl]methyl}piperazinyl 5-methylindol-2-yl ketone] | < 100
Cc1ccc(C#CC(=O)N2CCN(Cc3ccc(Cl)cc3)CC2)cc1 [Compound C245, 1-{4-[(4-chlorophenyl)methyl]piperazinyl}-3-(4-methylphenyl)prop-2-yn-1-one] | < 100
O=C(c1cc2cc(C(F)(F)F)ccc2[nH]1)N1CCN(C(=O)c2ccc(Cl)cc2Cl)CC1 [Compound C246, 4-[(2,4-dichlorophenyl)carbonyl]piperazinyl 5-(trifluoromethyl)indol-2-yl ketone] | < 100
O=C(c1ccc2sccc2c1)N1CCN(C(c2ccccc2)c2ccccc2)CC1 [Compound C247, benzo[b]thiophen-5-yl 4-(diphenylmethyl)piperazinyl ketone] | < 100
O=C(/C=C/c1ccccc1)N1CCN(Cc2ccc(F)cc2)CC1 [Compound C248, (2E)-1-{4-[(4-fluorophenyl)methyl]piperazinyl}-3-phenylprop-2-en-1-one] | < 100
O=C(C#Cc1ccc(Cl)c(Cl)c1)N1CCN(C(=O)c2ccc(C(F)(F)F)cc2)CC1 [Compound C249, 3-(3,4-dichlorophenyl)-1-(4-{[4-(trifluoromethyl)phenyl]carbonyl}piperazinyl)prop-2-yn-1-one] | < 100
O=C(c1cc2cc(C(F)(F)F)ccc2[nH]1)N1CCN(Cc2cc(F)cc(F)c2)CC1 [Compound C251, 4-[(3,5-difluorophenyl)methyl]piperazinyl 5-(trifluoromethyl)indol-2-yl ketone] | < 100
O=C(C#Cc1ccc(F)cc1)N1CCN(C(=O)c2ccc(C(F)(F)F)cc2)CC1 [Compound C253, 3-(4-fluorophenyl)-1-(4-{[4-(trifluoromethyl)phenyl]carbonyl}piperazinyl)prop-2-yn-1-one] | < 100

SMILES | IC50 [nM]
O=C(c1ccc(Cl)cc1)N1CCN(C(=O)c2cc3ccc(Cl)cc3[nH]2)CC1 [Compound C255, 6-chloroindol-2-yl 4-[(4-chlorophenyl)carbonyl]piperazinyl ketone] | < 100
COc1ccc(C(=O)N2CCN(C(=O)C=Cc3ccc4c(c3)OCO4)CC2)cc1 [Compound C256, 3-(2H-benzo[3,4-d]1,3-dioxolen-5-yl)-1-{4-[(4-methoxyphenyl)carbonyl]piperazinyl}prop-2-en-1-one] | < 100
O=C(c1cnc2ccc(Cl)cc2c1)N1CCN(C(c2ccccc2)c2ccccc2)CC1 [Compound C257, 4-(diphenylmethyl)piperazinyl 6-chloro(3-quinolyl) ketone] | < 100
CCCc1ccc(S(=O)(=O)N2CCN(C(=O)/C=C/c3ccc(F)cc3)CC2)cc1 [Compound C259, (2E)-3-(4-fluorophenyl)-1-{4-[(4-propylphenyl)sulfonyl]piperazinyl}prop-2-en-1-one] | < 100
CC(C)c1ccc(S(=O)(=O)N2CCN(C(=O)/C=C/c3ccc(F)cc3)CC2)cc1 [Compound C261, (2E)-3-(4-fluorophenyl)-1-(4-{[4-(methylethyl)phenyl]sulfonyl}piperazinyl)prop-2-en-1-one] | < 100
O=C(C#Cc1cccc(Cl)c1Cl)N1CCN(Cc2ccc(F)cc2)CC1 [Compound C262, 3-(2,3-dichlorophenyl)-1-{4-[(4-fluorophenyl)methyl]piperazinyl}prop-2-yn-1-one] | < 100
O=C(c1cc2c(F)cc(F)cc2[nH]1)N1CCN(C(c2ccccc2)c2ccccc2)CC1 [Compound C263, 4,6-difluoroindol-2-yl 4-(diphenylmethyl)piperazinyl ketone] | < 100
O=C(c1ccc(Br)cc1)N1CCN(C(=O)c2cc3ccc(Br)cc3[nH]2)CC1 [Compound C264, 6-bromoindol-2-yl 4-[(4-bromophenyl)carbonyl]piperazinyl ketone] | < 100
O=C(/C=C/c1cccc(C(F)(F)F)c1)N1CCN(C(c2ccccc2)c2ccccc2)CC1 [Compound C265, (2E)-1-[4-(diphenylmethyl)piperazinyl]-3-[3-(trifluoromethyl)phenyl]prop-2-en-1-one] | < 100
O=C(C#Cc1ccc2c(c1)OCO2)N1CCN(C(=O)c2ccc(C(F)(F)F)cc2)CC1 [Compound C266, 3-(2H-benzo[3,4-d]1,3-dioxolen-5-yl)-1-(4-{[4-(trifluoromethyl)phenyl]carbonyl}piperazinyl)prop-2-yn-1-one] | < 100
O=C(/C=C/c1ccc(Br)cc1)N1CCN(C(=O)c2cccc(B(O)O)c2)CC1 [Compound C267, (E)-(3-(4-(3-(4-bromophenyl)acryloyl)piperazine-1-carbonyl)phenyl)boronic acid] | < 100
O=C(c1ccc(F)cc1)N1CCN(C(=O)c2cc3ccc(Cl)cc3[nH]2)CC1 [Compound C268, 6-chloroindol-2-yl 4-[(4-fluorophenyl)carbonyl]piperazinyl ketone] | < 100
O=C(/C=C/c1ccc(Br)cc1)N1CCN(Cc2ccccc2F)CC1 [Compound C269, (2E)-3-(4-bromophenyl)-1-{4-[(2-fluorophenyl)methyl]piperazinyl}prop-2-en-1-one] | < 100
O=C(/C=C/c1ccccc1)N1CCN(CCc2ccc(Cl)cc2)CC1 [Compound C270, (2E)-1-{4-[2-(4-chlorophenyl)ethyl]piperazinyl}-3-phenylprop-2-en-1-one] | < 100
O=C(c1cccc(C(F)(F)F)c1)N1CCN(C(=O)c2cc3cc(C(F)(F)F)ccc3[nH]2)CC1 [Compound C271, 5-(trifluoromethyl)indol-2-yl 4-{[3-(trifluoromethyl)phenyl]carbonyl}piperazinyl ketone] | < 100
O=C(c1cc2cc(Cl)ccc2[nH]1)N1CCC(Oc2cccc(Cl)c2)CC1 [Compound C272, 5-chloroindol-2-yl 4-(3-chlorophenoxy)piperidyl ketone] | < 100
COc1ccc(CN2CCN(C(=O)C#Cc3ccc(Br)cc3)CC2)cc1 [Compound C274, 3-(4-bromophenyl)-1-{4-[(4-methoxyphenyl)methyl]piperazinyl}prop-2-yn-1-one] | < 100
O=C(c1cnc2ccccc2n1)N1CCN(C(c2ccccc2)c2ccccc2)CC1 [Compound C276, 4-(diphenylmethyl)piperazinyl quinoxalin-2-yl ketone] | 100 to 500
